According to ChEMBL document CHEMBL5096194, “Development of Alectinib-Based PROTACs as Novel Potent Degraders of Anaplastic Lymphoma Kinase (ALK)” (J Med Chem, 2021):
Calls of active or inactive are those of the source. The calls are words filed in the database; no cut-off is given here.

Key:
[1] = In vivo induction of degradation of ALK in human KARPAS-299 cells xenografted in NCG mouse assessed as reduction in ALK protein expression in tumor at 10 mg/kg, iv administered as single dose measured after 12 hrs by immunoblot analysis relative to control; type: functional; set-up: scale not given: the % may be the effect or the level left
[2] = target: T1, Protein cereblon/ALK tyrosine kinase receptor/Echinoderm microtubule-associated protein-like 4 (Homo sapiens) (UniProt Q9UM73+Q9HC35+Q96SW2); test: Protac activity at CRBN/EML4-ALK in human NCI-H3122 cells assessed as induction of EML4-ALK fusion protein degradation at 1 uM incubated for 16 hrs by Western blot analysis relative to control; type: cell-based
[3] = target: ALK tyrosine kinase receptor (Homo sapiens, UniProt Q9UM73); test: Inhibition of ALK phosphorylation in human KARPAS-299 cells at 0.01 to 1 uM measured after 24 hrs by Western blot analysis; type: cell-based; conditions: dose 0.01-1 µM
KARPAS-299 [4] = test: Antitumor activity against human KARPAS-299 cells xenografted in NCG mouse assessed as increase in ALK protein degradation at 5 to 10 mg/kg, iv administered once every day for 3 weeks; type: functional, organism-based; conditions: dose 5-10 mg/kg
KARPAS-299 [5] = test: Antitumor activity against human KARPAS-299 cells xenografted in NCG mouse assessed as reduction in tumor weight at 25 to 50 mg/kg, ip administered once every day for 3 weeks and measured every 3 days; type: functional, organism-based; conditions: dose 25-50 mg/kg
[6] = target: NPM/ALK (Nucleophosmin/ALK tyrosine kinase receptor) (Homo sapiens) (UniProt Q9UM73+P06748); test: Induction of NPM-ALK degradation in human KARPAS-299 cells assessed as reduction in NPM-ALK protein level at 1 uM measured after 24 hrs by Western blot analysis; type: cell-based
[7] = Cmax in Sprague-Dawley rat at 1 mg/kg, iv administered as single dose measured for 24 hrs by LC-MS/MS analysis; type: ADME, organism-based; set-up: time 24 hrs, dose 1 mg/kg, route iv; conditions: in vivo
[8] = AUC (0 to t) in Sprague-Dawley rat at 50 mg/kg, ip administered as single dose measured for 24 hrs by LC-MS/MS analysis; type: ADME, organism-based; set-up: dose 50 mg/kg, time 24 hrs, route ip; conditions: in vivo
KARPAS-299 [9] = test: Antitumor activity against human KARPAS-299 cells xenografted in NCG mouse assessed as reduction in tumor volume at 25 to 50 mg/kg, ip administered once every day for 3 weeks and measured every 3 days; type: functional, organism-based; conditions: dose 25-50 mg/kg
[10] = target: T1, Protein cereblon/ALK tyrosine kinase receptor/Echinoderm microtubule-associated protein-like 4 (Homo sapiens); test: Protac activity at CRBN/EML4-ALK in human NCI-H3122 cells assessed as induction of EML4-ALK fusion protein degradation at 0.25 uM incubated for 16 hrs by Western blot analysis; type: cell-based
KARPAS-299 [11] = test: Antitumor activity against human KARPAS-299 cells xenografted in NCG mouse assessed as reduction in tumor weight at 5 to 10 mg/kg, iv administered once every day for 3 weeks and measured every 3 days; type: functional, organism-based; conditions: dose 5-10 mg/kg
[12] = target: Signal transducer and activator of transcription 3 (Homo sapiens) (UniProt P40763); test: Inhibition of STAT3 phosphorylation in human KARPAS-299 cells as 0.01 to 1 uM measured after 24 hrs by Western blot analysis; type: cell-based; conditions: dose 0.01-1 µM
[13] = target: T1, Protein cereblon/ALK tyrosine kinase receptor/Echinoderm microtubule-associated protein-like 4 (Homo sapiens); test: Protac activity at CRBN/EML4-ALK in human NCI-H3122 cells assessed as induction of EML4-ALK fusion protein degradation at 0.1 uM incubated for 16 hrs by Western blot analysis relative to control; type: cell-based
[14] = MRTlast in Sprague-Dawley rat at 50 mg/kg, ip administered as single dose measured for 24 hrs by LC-MS/MS analysis; type: ADME, organism-based; conditions: in vivo
BaF3 [15] = test: Antiproliferative activity against mouse BaF3 cells assessed as cell viability at 1 uM incubated for 72 hrs by Celltitre-Glo assay relative to control; type: functional; conditions: read-out: Activity
[16] = In vivo induction of degradation of ALK in human KARPAS-299 cells xenografted in NCG mouse assessed as ALK protein expression in tumor at 10 mg/kg, iv administered as single dose measured after 24 hrs by immunoblot analysis relative to control; type: functional
KARPAS-299 [17] = test: Antitumor activity against human KARPAS-299 cells xenografted in NCG mouse assessed as tumor growth inhibition at 10 mg/kg, iv administered once every day for 3 weeks and measured every 3 days relative to control; type: functional; conditions: KARPAS-299, 504 h, read-out: TGI
KARPAS-299 [18] = test: Antitumor activity against human KARPAS-299 cells xenografted in NCG mouse assessed as increase in ALK protein degradation at 25 to 50 mg/kg, ip administered once every day for 3 weeks; type: functional, organism-based; conditions: dose 25-50 mg/kg
KARPAS-299 [19] = test: Antitumor activity against human KARPAS-299 cells xenografted in NCG mouse assessed as reduction in tumor volume at 5 to 10 mg/kg, iv administered once every day for 3 weeks and measured every 3 days; type: functional, organism-based; conditions: dose 5-10 mg/kg
[20] = Volume of distribution in Sprague-Dawley rat at 1 mg/kg, iv administered as single dose measured for 24 hrs by LC-MS/MS analysis; type: ADME, organism-based; conditions: in vivo
KARPAS-299 [21] = test: Downregulation of jun-B protein expression in human KARPAS-299 cells at 1 uM incubated for 24 hrs by iTRAQ proteomics analysis; type: functional, cell-based
[22] = target: Signal transducer and activator of transcription 3 (Homo sapiens) (UniProt P40763); test: Inhibition of STAT3 phosphorylation in human KARPAS-299 cells as 100 nM measured after 24 hrs by Western blot analysis relative to control; type: cell-based
BaF3 [23] = test: Antiproliferative activity against crizotinib-resistant mouse BaF3 cells expressing EML-ALK L1152R mutant assessed as cell viability at 1 uM incubated for 72 hrs by Celltitre-Glo assay relative to control; type: functional; conditions: read-out: Activity
KARPAS-299 [24] = test: Antiproliferative activity against ALK-positive human KARPAS-299 cells assessed as inhibition of cell proliferation measured after 72 hrs by MTT assay; type: functional, cell-based; conditions: KARPAS-299, 72 h
[25] = MRTlast in Sprague-Dawley rat at 1 mg/kg, iv administered as single dose measured for 24 hrs by LC-MS/MS analysis; type: ADME, organism-based; conditions: in vivo
[26] = Toxicity in NCG mouse xenografted with human KARPAS-299 cells assessed as spleen damage at 10 mg/kg, iv administered once every day for 3 weeks by H and E staining based analysis; type: organism-based; conditions: in vivo, 504 h
BaF3 [27] = test: Antiproliferative activity against crizotinib-resistant mouse BaF3 cells expressing EML-ALK L1196M mutant assessed as cell viability at 1 uM incubated for 72 hrs by Celltitre-Glo assay relative to control; type: functional; conditions: read-out: Activity
[28] = Half life in Sprague-Dawley rat at 50 mg/kg, ip administered as single dose measured for 24 hrs by LC-MS/MS analysis; type: ADME, organism-based; conditions: in vivo
[29] = target: Protein cereblon/ALK tyrosine kinase receptor/Nucleophosmin (Homo sapiens, UniProt P06748+Q96SW2+Q9UM73); test: Protac activity at CRBN/NPM-ALK in human KARPAS-299 cells assessed as induction of NPM-ALK fusion protein degradation incubated for 48 hrs by Western blot analysis; type: cell-based
[30] = AUC (0 to t) in Sprague-Dawley rat at 1 mg/kg, iv administered as single dose measured for 24 hrs by LC-MS/MS analysis; type: ADME, organism-based; set-up: time 24 hrs, dose 1 mg/kg, route iv; conditions: in vivo
[31] = target: T1, Protein cereblon/ALK tyrosine kinase receptor/Echinoderm microtubule-associated protein-like 4 (Homo sapiens); test: Protac activity at CRBN/EML4-ALK in human NCI-H3122 cells assessed as reduction in EML4-ALK fusion protein level at 100 nM measured after 16 hrs by Western blot analysis relative to control; type: cell-based; set-up: scale not given: the % may be the effect or the level left

T1 sequence (Q96SW2 whole entry partner, the tested form may be a part): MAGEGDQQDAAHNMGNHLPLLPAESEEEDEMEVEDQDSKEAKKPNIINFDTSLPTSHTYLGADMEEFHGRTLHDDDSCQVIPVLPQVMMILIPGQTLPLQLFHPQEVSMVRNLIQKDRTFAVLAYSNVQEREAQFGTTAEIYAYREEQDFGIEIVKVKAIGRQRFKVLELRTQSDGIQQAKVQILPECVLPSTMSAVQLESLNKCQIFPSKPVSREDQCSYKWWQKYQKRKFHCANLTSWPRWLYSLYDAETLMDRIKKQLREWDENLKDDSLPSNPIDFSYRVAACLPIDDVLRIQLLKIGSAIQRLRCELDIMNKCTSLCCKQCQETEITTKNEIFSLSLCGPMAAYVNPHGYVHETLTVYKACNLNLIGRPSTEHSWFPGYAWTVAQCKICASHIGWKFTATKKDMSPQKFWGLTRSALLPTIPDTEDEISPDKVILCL
T1 sequence (Q9HC35 whole entry partner, the tested form may be a part): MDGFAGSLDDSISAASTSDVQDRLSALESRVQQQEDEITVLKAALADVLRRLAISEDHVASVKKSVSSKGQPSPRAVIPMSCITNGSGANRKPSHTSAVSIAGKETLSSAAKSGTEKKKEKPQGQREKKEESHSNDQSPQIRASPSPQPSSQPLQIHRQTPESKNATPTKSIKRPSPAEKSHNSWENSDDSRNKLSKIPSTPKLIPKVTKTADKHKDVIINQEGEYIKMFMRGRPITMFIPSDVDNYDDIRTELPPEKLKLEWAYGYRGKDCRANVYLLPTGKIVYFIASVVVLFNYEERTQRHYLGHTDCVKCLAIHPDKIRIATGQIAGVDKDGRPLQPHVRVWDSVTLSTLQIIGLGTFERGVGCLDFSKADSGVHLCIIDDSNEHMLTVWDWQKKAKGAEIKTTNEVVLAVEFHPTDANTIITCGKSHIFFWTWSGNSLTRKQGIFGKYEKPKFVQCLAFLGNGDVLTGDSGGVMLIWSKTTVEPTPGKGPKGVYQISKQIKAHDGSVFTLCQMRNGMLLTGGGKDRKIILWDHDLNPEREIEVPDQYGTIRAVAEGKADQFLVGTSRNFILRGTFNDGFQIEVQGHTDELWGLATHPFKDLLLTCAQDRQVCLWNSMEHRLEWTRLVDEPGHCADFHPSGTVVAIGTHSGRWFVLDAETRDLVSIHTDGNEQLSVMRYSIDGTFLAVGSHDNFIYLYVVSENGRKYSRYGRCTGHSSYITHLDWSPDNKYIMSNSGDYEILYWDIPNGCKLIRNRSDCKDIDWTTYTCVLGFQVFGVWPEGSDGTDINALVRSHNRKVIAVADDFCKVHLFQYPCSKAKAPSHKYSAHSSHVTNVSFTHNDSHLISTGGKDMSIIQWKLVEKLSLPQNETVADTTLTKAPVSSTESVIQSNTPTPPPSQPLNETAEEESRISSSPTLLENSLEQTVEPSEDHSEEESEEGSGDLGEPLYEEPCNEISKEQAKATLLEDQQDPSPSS
T1 sequence (Q9UM73 19-1620 limits assumed): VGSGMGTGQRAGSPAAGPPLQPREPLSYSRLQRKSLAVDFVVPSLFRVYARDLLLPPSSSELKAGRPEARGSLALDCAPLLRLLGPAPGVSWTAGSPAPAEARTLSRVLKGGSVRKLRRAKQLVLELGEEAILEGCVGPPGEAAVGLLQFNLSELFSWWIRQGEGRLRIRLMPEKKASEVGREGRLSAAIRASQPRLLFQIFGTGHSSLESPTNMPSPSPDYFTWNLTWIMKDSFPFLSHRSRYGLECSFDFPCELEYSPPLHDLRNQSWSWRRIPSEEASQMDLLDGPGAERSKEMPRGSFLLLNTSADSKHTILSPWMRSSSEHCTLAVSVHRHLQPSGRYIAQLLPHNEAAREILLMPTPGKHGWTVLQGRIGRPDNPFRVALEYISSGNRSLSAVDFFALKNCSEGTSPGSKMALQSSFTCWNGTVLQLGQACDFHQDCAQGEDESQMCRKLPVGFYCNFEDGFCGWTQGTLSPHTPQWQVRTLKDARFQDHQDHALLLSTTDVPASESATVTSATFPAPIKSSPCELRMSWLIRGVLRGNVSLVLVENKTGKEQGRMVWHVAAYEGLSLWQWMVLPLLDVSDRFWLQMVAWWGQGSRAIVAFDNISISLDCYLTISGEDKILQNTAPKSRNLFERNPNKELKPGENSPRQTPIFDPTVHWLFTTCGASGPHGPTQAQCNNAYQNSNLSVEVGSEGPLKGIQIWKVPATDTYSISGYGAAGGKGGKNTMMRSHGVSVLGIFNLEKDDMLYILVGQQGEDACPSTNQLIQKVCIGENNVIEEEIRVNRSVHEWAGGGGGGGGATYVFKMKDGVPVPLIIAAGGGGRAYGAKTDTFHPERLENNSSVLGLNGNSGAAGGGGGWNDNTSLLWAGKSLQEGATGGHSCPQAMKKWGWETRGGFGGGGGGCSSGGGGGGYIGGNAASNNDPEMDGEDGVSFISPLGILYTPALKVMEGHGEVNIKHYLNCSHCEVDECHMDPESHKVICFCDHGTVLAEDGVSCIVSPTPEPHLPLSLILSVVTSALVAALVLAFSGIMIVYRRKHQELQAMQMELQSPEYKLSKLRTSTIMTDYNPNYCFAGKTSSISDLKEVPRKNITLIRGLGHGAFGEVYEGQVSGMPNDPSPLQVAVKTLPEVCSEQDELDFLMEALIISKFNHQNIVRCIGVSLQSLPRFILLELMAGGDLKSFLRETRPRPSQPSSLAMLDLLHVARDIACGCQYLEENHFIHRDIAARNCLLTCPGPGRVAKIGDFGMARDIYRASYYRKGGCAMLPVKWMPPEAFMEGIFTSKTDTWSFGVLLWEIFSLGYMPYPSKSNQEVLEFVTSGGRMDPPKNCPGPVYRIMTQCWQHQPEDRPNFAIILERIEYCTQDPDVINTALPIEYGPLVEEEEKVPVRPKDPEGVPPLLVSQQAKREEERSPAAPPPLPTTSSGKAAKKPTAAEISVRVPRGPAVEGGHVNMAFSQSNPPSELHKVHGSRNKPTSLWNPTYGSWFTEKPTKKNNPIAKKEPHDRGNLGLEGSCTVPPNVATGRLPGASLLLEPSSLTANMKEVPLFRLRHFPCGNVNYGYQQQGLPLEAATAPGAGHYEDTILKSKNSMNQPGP
Sequence of Signal transducer and activator of transcription 3 (Homo sapiens) (P40763 whole entry, the tested form may be a part): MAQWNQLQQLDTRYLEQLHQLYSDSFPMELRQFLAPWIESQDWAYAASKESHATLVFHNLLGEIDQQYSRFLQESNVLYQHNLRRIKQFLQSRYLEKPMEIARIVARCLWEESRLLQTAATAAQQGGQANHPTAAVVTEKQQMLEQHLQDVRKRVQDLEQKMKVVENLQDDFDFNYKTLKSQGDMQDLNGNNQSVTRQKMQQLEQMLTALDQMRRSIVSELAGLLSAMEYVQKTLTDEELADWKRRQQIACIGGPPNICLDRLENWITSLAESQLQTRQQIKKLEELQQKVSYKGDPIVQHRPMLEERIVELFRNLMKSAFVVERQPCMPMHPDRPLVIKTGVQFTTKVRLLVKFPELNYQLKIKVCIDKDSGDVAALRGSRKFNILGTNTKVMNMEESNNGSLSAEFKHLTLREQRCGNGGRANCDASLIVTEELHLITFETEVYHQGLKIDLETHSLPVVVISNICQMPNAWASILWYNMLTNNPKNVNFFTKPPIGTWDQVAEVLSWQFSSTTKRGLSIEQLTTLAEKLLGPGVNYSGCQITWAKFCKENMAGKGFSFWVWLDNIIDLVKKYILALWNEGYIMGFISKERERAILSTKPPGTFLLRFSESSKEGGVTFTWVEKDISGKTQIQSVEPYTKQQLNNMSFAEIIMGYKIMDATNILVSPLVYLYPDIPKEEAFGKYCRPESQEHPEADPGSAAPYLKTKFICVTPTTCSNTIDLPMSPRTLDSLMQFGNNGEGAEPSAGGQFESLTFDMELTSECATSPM
Sequence of ALK tyrosine kinase receptor (Q9UM73 19-1620 limits assumed): as the sequence (Q9UM73 19-1620 limits assumed) above
Sequence of NPM/ALK (Nucleophosmin/ALK tyrosine kinase receptor) (Homo sapiens) (P06748 whole entry partner): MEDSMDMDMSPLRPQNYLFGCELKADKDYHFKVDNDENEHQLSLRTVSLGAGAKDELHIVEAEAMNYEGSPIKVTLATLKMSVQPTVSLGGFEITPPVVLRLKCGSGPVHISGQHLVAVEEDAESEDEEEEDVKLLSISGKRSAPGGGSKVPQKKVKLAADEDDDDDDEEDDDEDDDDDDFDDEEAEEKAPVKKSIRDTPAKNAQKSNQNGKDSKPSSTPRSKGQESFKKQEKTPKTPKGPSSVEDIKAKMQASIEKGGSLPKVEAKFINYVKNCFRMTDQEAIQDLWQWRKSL
Sequence of NPM/ALK (Nucleophosmin/ALK tyrosine kinase receptor) (Homo sapiens) (Q9UM73 19-1620 limits assumed): as the sequence (Q9UM73 19-1620 limits assumed) above

CCc1cc2c(cc1N1CCN(C(=O)CNc3cccc4c3C(=O)N(C3CCC(=O)NC3=O)C4=O)CC1)C(C)(C)c1[nH]c3cc(C#N)ccc3c1C2=O (stereo unspecified)
Activity [1]: >85%
Activity [2]: 83.6%
inhibition [3]: Active
Activity (KARPAS-299 [4]): Active
Activity (KARPAS-299 [5]): Active
Activity [6]: Active
Cmax [7]: 994 ng/mL
AUC(0-t) at 24 h [8]: 546 ng·h/mL
Activity (KARPAS-299 [9]): Active
Activity [10]: Active
Activity (KARPAS-299 [11]): Active
inhibition [12]: Active
Activity [13]: 50.3%
MRT last at 24 h [14]: 9.93 h
viability at 1 µM (BaF3 [15]): 116%
Activity [16]: 18.7%
inhibition in vivo at 10 mg/kg (KARPAS-299 [17]): 75.8%
Activity (KARPAS-299 [18]): Active
Activity (KARPAS-299 [19]): Active
Vd [20]: 3.89 L/kg
Activity (KARPAS-299 [21]): Active
inhibition [22]: > 85%
viability at 1 µM (BaF3 [23]): 0.1%
IC50 (KARPAS-299 [24]): 42 nM
MRT last at 24 h [25]: 4.2 min
Activity [26]: Non-Toxic
viability at 1 µM (BaF3 [27]): 6.1%
half-life [28]: 30.5 h
EC50 [29]: 116 nM
AUC(0-t) at 24 h [30]: 146 ng·h/mL
Activity [31]: 22.6%
